How the values were obtained:
H₁-receptor [1] = molecular target: T1, H₁-receptor (Cavia porcellus, UniProt P31389); test: Reduction of histamine-induced contraction of isolated guinea pig ileum; format: cell-based, guinea pigs; conditions: test drug 1 × 10⁻⁷M in the presence of histamine 1 × 10⁻⁶M; guinea pig terminal ileum; quadruplicate sets of tissues; read-out: percent reduction in tissue contraction
T1 construct: Fresh segments of terminal ileum immediately proximal to Peyer's patch, obtained from male Buckshire guinea pigs; from tissue; host or cells: guinea pig terminal ileum segments
Protocol: The compounds of this invention were established to be histamine H₁-antagonists by subjecting them to the following standard test procedures for H₁-blocking activity:
Fresh segments of terminal ileum immediately proximal to Peyer's patch, obtained from male Buckshire guinea pigs, were suspended in 37°C Tyrode's solution in a tissue bath and aerated. The tissue segments were placed under one gram tension and allowed to equilibrate for one hour. Histamine was added to each tissue bath to a final concentration of 1 × 10⁻⁶M. The contraction response after it equilibrated was noted as grams tension. Test drug was added, in the presence of histamine, to each bath to a final concentration of 1 × 10⁻⁷M. The change in grams tension was noted and the percent reduction in grams tension calculated.

H₁-receptor [2] = molecular target: T1, H₁-receptor; test: Shift of the histamine dose-response curve in ileum tissue; format: cell-based, guinea pigs; conditions: ileum tissues
[3] = test system: histamine-induced death in guinea pigs; test: Protection against histamine-induced death after oral pretreatment; format: in vivo

T1 sequence (P31389 whole entry): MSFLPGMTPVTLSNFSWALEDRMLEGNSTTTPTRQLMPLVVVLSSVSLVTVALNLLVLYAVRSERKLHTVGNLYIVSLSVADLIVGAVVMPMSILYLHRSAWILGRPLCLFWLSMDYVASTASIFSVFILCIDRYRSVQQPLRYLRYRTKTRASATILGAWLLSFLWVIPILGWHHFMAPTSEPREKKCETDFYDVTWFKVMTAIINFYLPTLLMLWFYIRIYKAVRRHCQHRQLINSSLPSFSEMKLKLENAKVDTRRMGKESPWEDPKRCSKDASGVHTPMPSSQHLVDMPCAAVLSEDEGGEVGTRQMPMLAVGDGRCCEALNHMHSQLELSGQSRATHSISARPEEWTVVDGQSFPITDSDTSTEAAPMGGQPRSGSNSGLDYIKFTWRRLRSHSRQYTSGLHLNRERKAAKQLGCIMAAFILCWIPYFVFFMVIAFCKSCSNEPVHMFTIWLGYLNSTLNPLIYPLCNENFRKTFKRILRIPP

Compound	inhibition at 0.1 µM (H₁-receptor [1])	Kb (H₁-receptor [2]; calculated via formula from the dose-response curve shift at 10⁻⁸M compound, read-out: histamine H₁antagonist potency)	shift of histamine dose-response curve (H₁-receptor [2]; compound at 10⁻⁸M)	Percent Survival ([3]; 0.5 mg/kg p.o., 18 Hours pretreatment, Trial5)	Percent Survival ([3]; 0.5 mg/kg p.o., 18 Hours pretreatment, Trial 6)	Percent Survival ([3]; 1.0 mg/kg p.o., 1 Hour pretreatment, Trial 1)	Percent Survival ([3]; 1.0 mg/kg p.o., 1 Hour pretreatment, Trial 2)	Percent Survival ([3]; 1.0 mg/kg p.o., 1 Hour pretreatment, Trial 3)	Percent Survival ([3]; 1.0 mg/kg p.o., 2 Hours pretreatment, Trial 3)	Percent Survival ([3]; 1.0 mg/kg p.o., 2 Hours pretreatment, Trial 4)	Percent Survival ([3]; 1.0 mg/kg p.o., 18 Hours pretreatment, Trial5)	Percent Survival ([3]; 5.0 mg/kg p.o., 1 Hour pretreatment, Trial 1)	Percent Survival ([3]; 10.0 mg/kg p.o., 2 Hours pretreatment, Trial 4)
Cn1c(=O)c2c(ncn2CCN2CCC(OC(c3ccc(F)cc3)c3ccc(F)cc3)CC2)n(C)c1=O [Example 4, 7-[2-[4-Bis(4-fluorophenyl)methoxy]-1-piperidinyl]ethyl-3,7-dihydro-1,3-dimethyl-1H-purine-2,6-dione]	62%												
Cn1c(=O)c2c(ncn2CCCN2CCC(OC(c3ccccc3)c3ccccc3)CC2)n(C)c1=O [Example 1, 7-[3-(4-Diphenylmethoxy)-1-piperidinyl]propyl-3,7-dihydro-1,3-dimethyl-1H-purine-2,6-dione]	92%	0.29 nM	marked, parallel shift of the curve to the right	70%	40%	40%	10%	40%	70%	70%	80%	80%	60%

Source: EP0271192A2, “Purine histamine H1 antagonists, their preparation and pharmaceutical compositions containing them” (AMERICAN HOME PRODUCTS CORPORATION, priority 1986, dated 1988)
